Tests used:
E. faecium ATCC 700221 = assay: Neutropenic thigh infection mouse model with VanA E. faecium; format: in vivo; details: compound 17 4 doses at 100 mg/kg i.p., linezolid 4 doses at 50 mg/kg i.p.
[1] = system: M. bovis BCG Pasteur ATCC 35734; format: cell-based
M. tuberculosis H37Ra = format: cell-based, Mycobacterium tuberculosis

CC(=O)NC[C@H]1CN(c2ccc(N3CCOCC3)c(F)c2)C(=O)O1 [linezolid]
weight loss compared to untreated control mice (E. faecium ATCC 700221): reduced weight loss | survival (endpoint: 15% of starting weight lost) (E. faecium ATCC 700221; neutropenic mice, Kaplan–Meier, *P < 0.05 Gehan–Breslow–Wilcoxon test): significant survival benefit

complestatin
MIC, M. bovis BCG Pasteur ATCC 35734 [1]: 64 µg/mL | MIC, M. tuberculosis H37Ra (M. tuberculosis H37Ra): >64 µg/mL
